# Read-outs that look alike come from different tables or passages of the source. Non-standard residues stand in square brackets, D forms with d. Residues, ends and D or L forms follow the SMILES beside them. dDip = N[C@@H](C(=O)O)C(c1ccccc1)c1ccccc1; Dip = N[C@H](C(=O)O)C(c1ccccc1)c1ccccc1; 2Nal = N[C@@H](Cc1ccc2ccccc2c1)C(=O)O; d2Nal = N[C@H](Cc1ccc2ccccc2c1)C(=O)O
# Tests used:
# [1] = test system: Escherichia coli (ATCC 25922); conditions: ATCC 25922
# [2] = test system: Pseudomonas aeruginosa (ATCC 27883)
# S. aureus ATCC 29213 = conditions: ATCC 29213
# in vitro = conditions: human, fresh human red blood cells (washed), pH 7.4
# [3] = test system: Methicillin-resistant Staphylococcus aureus MRSA (ATCC BAA-1556); conditions: ATCC BAA-1556
MIC E. coli ATCC 25922 [1],MIC P. aeruginosa ATCC 27883 ([2]; ATCC 27883),MIC S. aureus ATCC 29213 (S. aureus ATCC 29213),HC50 at 0.5 h (in vitro),MIC MRSA ATCC BAA-1556 [3],SMILES,MIC P. aeruginosa ATCC 27883 ([2]; P. aeruginosa ATCC 27883)
128 µg/mL,128 µg/mL,12.5 µg/mL,890 µg/mL,12.5 µg/mL,"NCCCC[C@H]1NC(=O)[C@H](Cc2ccc3ccccc3c2)NC(=O)[C@H](Cc2ccc3ccccc3c2)NC(=O)[C@H](Cc2c[nH]c3ccccc23)NC(=O)[C@@H](CCCCN)NC(=O)[C@@H](CCCCN)NC(=O)[C@@H](CCCCN)NC(=O)[C@@H](CCCCN)NC1=O [IFX-134, c[lys-lys-lys-lys-lys-Trp-NaI-NaI]] (cyclo([2Nal][2Nal][dK][dK][dK][dK][dK]W))",
128 µg/mL,128 µg/mL,6.2 µg/mL,580 µg/mL,6.2 µg/mL,"NCCCC[C@H]1NC(=O)[C@@H](CCCCN)NC(=O)[C@@H](CCCCN)NC(=O)[C@@H](Cc2ccc3ccccc3c2)NC(=O)[C@@H](Cc2ccc3ccccc3c2)NC(=O)[C@@H](Cc2c[nH]c3ccccc23)NC(=O)[C@@H](CCCCN)NC(=O)[C@@H](CCCCN)NC1=O [IFX-133, c[lys-lys-lys-lys-lys-trp-naI-naI]] (cyclo([d2Nal][d2Nal][dK][dK][dK][dK][dK][dW]))",
16 µg/mL,32 µg/mL,3.1 µg/mL,485 µg/mL,3.1 µg/mL,"N=C(N)NCCC[C@@H]1NC(=O)[C@H](CCCNC(=N)N)NC(=O)[C@@H](Cc2ccc3ccccc3c2)NC(=O)[C@@H](Cc2ccc3ccccc3c2)NC(=O)[C@H](Cc2c[nH]c3ccccc23)NC(=O)[C@@H](CCCNC(=N)N)NC(=O)[C@@H](CCCNC(=N)N)NC(=O)[C@H](CCCNC(=N)N)NC1=O [IFX-125, c[Arg-Arg-Arg-arg-arg-Trp-naI-naI]] (cyclo(RRR[dR][dR]W[d2Nal][d2Nal]))",
12.5 µg/mL,12.5 µg/mL,6.2 µg/mL,300 µg/mL,6.2 µg/mL,N=C(N)NCCC[C@@H](N)C(=O)N[C@H](CCCNC(=N)N)C(=O)N[C@H](CCCNC(=N)N)C(=O)N[C@H](CCCNC(=N)N)C(=O)N[C@@H](Cc1c[nH]c2ccccc12)C(=O)N[C@@H](Cc1ccc2ccccc2c1)C(=O)N[C@@H](Cc1ccc2ccccc2c1)C(=O)O [IFX-113-1] (H-[dR][dR][dR][dR]W[2Nal][2Nal]-OH),
6.2 µg/mL,12.5 µg/mL,3.1 µg/mL,410 µg/mL,6.2 µg/mL,N=C(N)NCCC[C@@H](N)C(=O)N[C@H](CCCNC(=N)N)C(=O)N[C@H](CCCNC(=N)N)C(=O)N[C@H](CCCNC(=N)N)C(=O)N[C@H](C(=O)N[C@H](C(=O)N[C@H](C(=O)O)C(c1ccccc1)c1ccccc1)C(c1ccccc1)c1ccccc1)C(c1ccccc1)c1ccccc1 [IFX-073-1] (H-[dR][dR][dR][dR][Dip][Dip][Dip]-OH),
12.5 µg/mL,25 µg/mL,3.1 µg/mL,380 µg/mL,3.1 µg/mL,"N=C(N)NCCC[C@@H]1NC(=O)[C@H](CCCNC(=N)N)NC(=O)[C@H](CCCNC(=N)N)NC(=O)[C@@H](Cc2ccc3ccccc3c2)NC(=O)[C@@H](Cc2ccc3ccccc3c2)NC(=O)[C@@H](Cc2c[nH]c3ccccc23)NC(=O)[C@H](CCCNC(=N)N)NC1=O [IFX-114, c[Arg-Arg-Arg-Arg-trp-naI-naI]] (cyclo(RRRR[dW][d2Nal][d2Nal]))",
16 µg/mL,16 µg/mL,3.1 µg/mL,190 µg/mL,3.1 µg/mL,"N=C(N)NCCC[C@H]1NC(=O)[C@H](Cc2ccc3ccccc3c2)NC(=O)[C@H](Cc2ccc3ccccc3c2)NC(=O)[C@@H](Cc2c[nH]c3ccccc23)NC(=O)[C@@H](CCCNC(=N)N)NC(=O)[C@@H](CCCNC(=N)N)NC(=O)[C@@H](CCCNC(=N)N)NC(=O)[C@@H](CCCNC(=N)N)NC1=O [IFX-123, c[arg-arg-arg-arg-arg-trp-NaI-NaI]] (cyclo([2Nal][2Nal][dR][dR][dR][dR][dR][dW]))",

# The remaining lines, values behind:
SMILES,MIC E. coli ATCC 25922 [1],MIC P. aeruginosa ATCC 27883 ([2]; ATCC 27883),MIC S. aureus ATCC 29213 (S. aureus ATCC 29213),HC50 at 0.5 h (in vitro),MIC MRSA ATCC BAA-1556 [3],MIC P. aeruginosa ATCC 27883 ([2]; P. aeruginosa ATCC 27883)
"N=C(N)NCCC[C@@H]1NC(=O)[C@H](CCCNC(=N)N)NC(=O)[C@H](CCCNC(=N)N)NC(=O)[C@H](CCCNC(=N)N)NC(=O)[C@@H](Cc2ccc3ccccc3c2)NC(=O)[C@H](Cc2ccc3ccccc3c2)NC(=O)[C@H](Cc2c[nH]c3ccccc23)NC1=O [IFX-102, c[Arg-Arg-Arg-Arg-Trp-NaI-naI]] (cyclo([2Nal][d2Nal]RRRRW))",12.5 µg/mL,25 µg/mL,3.1 µg/mL,200 µg/mL,3.1 µg/mL,
"N=C(N)NCCC[C@@H]1NC(=O)[C@H](CCCNC(=N)N)NC(=O)[C@H](CCCNC(=N)N)NC(=O)[C@H](Cc2ccc3ccccc3c2)NC(=O)[C@@H](Cc2ccc3ccccc3c2)NC(=O)[C@H](Cc2c[nH]c3ccccc23)NC(=O)[C@H](CCCNC(=N)N)NC1=O [IFX-103, c[Arg-Arg-Arg-Arg-Trp-naI-NaI]] (cyclo([2Nal]RRRRW[d2Nal]))",12.5 µg/mL,,3.1 µg/mL,170 µg/mL,3.1 µg/mL,12.5 µg/mL
"N=C(N)NCCC[C@@H]1NC(=O)[C@H](Cc2ccc3ccccc3c2)NC(=O)[C@H](Cc2ccc3ccccc3c2)NC(=O)[C@H](Cc2c[nH]c3ccccc23)NC(=O)[C@@H](CCCNC(=N)N)NC(=O)[C@H](CCCNC(=N)N)NC(=O)[C@H](CCCNC(=N)N)NC1=O [IFX-105, c[Arg-Arg-Arg-arg-Trp-NaI-NaI]] (cyclo([2Nal][2Nal]RRR[dR]W))",12.5 µg/mL,,3.1 µg/mL,130 µg/mL,3.1 µg/mL,12.5 µg/mL
"N=C(N)NCCC[C@@H]1NC(=O)[C@H](CCCNC(=N)N)NC(=O)[C@H](CCCNC(=N)N)NC(=O)[C@@H](CCCNC(=N)N)NC(=O)[C@H](Cc2ccc3ccccc3c2)NC(=O)[C@H](Cc2ccc3ccccc3c2)NC(=O)[C@H](Cc2c[nH]c3ccccc23)NC1=O [IFX-108, c[arg-Arg-Arg-Arg-Trp-NaI-NaI]] (cyclo([2Nal][2Nal][dR]RRRW))",12.5 µg/mL,6.2 µg/mL,1.5 µg/mL,350 µg/mL,1.5 µg/mL,
N=C(N)NCCC[C@H](NC(=O)[C@@H](CCCNC(=N)N)NC(=O)[C@@H](N)CCCNC(=N)N)C(=O)N[C@H](CCCNC(=N)N)C(=O)N[C@@H](C(=O)N[C@@H](C(=O)N[C@@H](C(=O)O)C(c1ccccc1)c1ccccc1)C(c1ccccc1)c1ccccc1)C(c1ccccc1)c1ccccc1 [IFX-070-1] (H-R[dR]R[dR][dDip][dDip][dDip]-OH),6.2 µg/mL,12.5 µg/mL,3.1 µg/mL,380 µg/mL,3.1 µg/mL,
N=C(N)NCCC[C@H](NC(=O)[C@H](CCCNC(=N)N)NC(=O)[C@H](CCCNC(=N)N)NC(=O)[C@@H](N)CCCNC(=N)N)C(=O)N[C@@H](Cc1c[nH]c2ccccc12)C(=O)N[C@H](Cc1ccc2ccccc2c1)C(=O)N[C@H](Cc1ccc2ccccc2c1)C(=O)O [IFX-112-1] (H-RRRRW[d2Nal][d2Nal]-OH),12.5 µg/mL,25 µg/mL,6.2 µg/mL,370 µg/mL,3.1 µg/mL,
"N=C(N)NCCC[C@H]1NC(=O)[C@@H](CCCNC(=N)N)NC(=O)[C@@H](CCCNC(=N)N)NC(=O)[C@@H](Cc2ccc3ccccc3c2)NC(=O)[C@@H](Cc2ccc3ccccc3c2)NC(=O)[C@@H](Cc2c[nH]c3ccccc23)NC(=O)[C@@H](CCCNC(=N)N)NC1=O [IFX-115, c[arg-arg-arg-arg-trp-naI-naI]] (cyclo([dR][dR][dR][dR][dW][d2Nal][d2Nal]))",12.5 µg/mL,25 µg/mL,3.1 µg/mL,360 µg/mL,3.1 µg/mL,
"NCCCC[C@@H]1NC(=O)[C@H](CCCCN)NC(=O)[C@H](CCCCN)NC(=O)[C@@H](Cc2ccc3ccccc3c2)NC(=O)[C@@H](Cc2ccc3ccccc3c2)NC(=O)[C@@H](Cc2c[nH]c3ccccc23)NC(=O)[C@H](CCCCN)NC(=O)[C@H](CCCCN)NC1=O [IFX-132, c[Lys-Lys-Lys-Lys-Lys-trp-naI-naI]] (cyclo(KKKKK[dW][d2Nal][d2Nal]))",128 µg/mL,128 µg/mL,12.5 µg/mL,930 µg/mL,12.5 µg/mL,
"NCCCC[C@@H]1NC(=O)[C@H](CCCCN)NC(=O)[C@H](CCCCN)NC(=O)[C@H](Cc2ccc3ccccc3c2)NC(=O)[C@H](Cc2ccc3ccccc3c2)NC(=O)[C@H](Cc2c[nH]c3ccccc23)NC(=O)[C@H](CCCCN)NC(=O)[C@H](CCCCN)NC1=O [IFX-131, c[Lys-Lys-Lys-Lys-Lys-Trp-NaI-NaI]] (cyclo([2Nal][2Nal]KKKKKW))",128 µg/mL,64 µg/mL,6.2 µg/mL,690 µg/mL,12.5 µg/mL,
"N=C(N)NCCC[C@@H]1NC(=O)[C@H](Cc2ccc3ccccc3c2)NC(=O)[C@H](Cc2ccc3ccccc3c2)NC(=O)[C@H](Cc2c[nH]c3ccccc23)NC(=O)[C@H](CCCNC(=N)N)NC(=O)[C@@H](CCCNC(=N)N)NC(=O)[C@H](CCCNC(=N)N)NC1=O [IFX-106, c[Arg-Arg-arg-Arg-Trp-NaI-NaI]] (cyclo([2Nal][2Nal]RR[dR]RW))",25 µg/mL,,1.5 µg/mL,175 µg/mL,1.5 µg/mL,12.5 µg/mL

# — US20220289794A1, “SYNTHETIC ANTIMICROBIAL PEPTIDES” (priority 2019, published 2022)
